According to patent US8501953B2, “PKM2 modulators for use in the treatment of cancer” (Agios Pharmaceuticals, Inc, priority 2009, dated 2013):

Molecular target: PKM2 (Homo sapiens, UniProt P14618)
Assay: PKM2 Assay (activation; LDH-coupled, NADH absorbance at 340 nm)
Assay type: biochemical
Details: PKM2 50 ng/well, ADP 0.7 mM, PEP 0.15 mM, no FBP in Reaction Mix
Method: • PKM2 stock enzyme solution was diluted in Reaction Buffer • 2 μL of compound was added into each well first, and then 180 μL of the Reaction Mix was added. • Reaction mixture with compound (without ADP) were incubated for 30 minutes at 4° C. • Plates were re-equilibrated to room temperature prior to adding 20 μL ADP to initiate the reaction. • Reaction progress was measured as changes in absorbance at 340 nm wavelength at room temperature (25° C.) Reaction Mix: PKM2 (50 ng/well), ADP (0.7 mM), PEP (0.15 mM), NADH (180 μM), LDH (2 units) in Reaction Buffer Reaction Buffer: 100 mM KCl, 50 mM Tris pH 7.5, 5 mM MgCl2, 1 mM DTT, 0.03% BSA.

Chain of PKM2 (P14618 whole entry): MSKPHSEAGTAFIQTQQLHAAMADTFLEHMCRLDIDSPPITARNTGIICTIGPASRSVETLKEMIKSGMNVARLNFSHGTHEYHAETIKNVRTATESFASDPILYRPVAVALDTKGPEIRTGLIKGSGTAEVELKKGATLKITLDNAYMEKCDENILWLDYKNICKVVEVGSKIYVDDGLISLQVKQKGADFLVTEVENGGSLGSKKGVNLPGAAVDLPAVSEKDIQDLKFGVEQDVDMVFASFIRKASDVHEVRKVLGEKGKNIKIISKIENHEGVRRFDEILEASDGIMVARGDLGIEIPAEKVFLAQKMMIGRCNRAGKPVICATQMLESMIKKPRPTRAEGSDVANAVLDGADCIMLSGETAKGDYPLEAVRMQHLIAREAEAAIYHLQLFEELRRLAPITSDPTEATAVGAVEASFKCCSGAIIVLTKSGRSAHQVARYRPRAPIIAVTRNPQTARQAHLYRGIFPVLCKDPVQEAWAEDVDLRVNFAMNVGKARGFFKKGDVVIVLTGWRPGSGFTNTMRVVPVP

| Compound | AC50 [µM] |
| --- | --- |
| COc1ccc(Cl)cc1S(=O)(=O)N1CCN(S(=O)(=O)c2ccc3c(c2)oc(=O)n3C)CC1 | 1 to 10 |
| COc1ccc(Cl)cc1NS(=O)(=O)c1cc2sc(=O)sc2cc1C | 1 to 10 |
| Cn1c(=O)oc2cc(S(=O)(=O)Nc3ccc4ncn(S(=O)(=O)c5cccc6c5oc(=O)n6C)c4c3)ccc21 | 1 to 10 |
| Cc1cc2c(cc1S(=O)(=O)N1CCN(C(=O)COc3ccc(-n4cnnn4)cc3)CC1)oc(=O)n2C | 10 to 50 |
| Cn1c(=O)sc2cc(NS(=O)(=O)c3cccs3)ccc21 | 10 to 50 |
| Cc1cc2c(cc1S(=O)(=O)N1CCN(C(=O)COc3ccccc3)CC1)oc(=O)n2C | > 100 |
| O=c1[nH]c2cc(NS(=O)(=O)c3c(F)cccc3F)ccc2s1 | 10 to 50 |
| COc1ccc(Cl)cc1S(=O)(=O)Nc1ccc2c(c1)sc(=O)n2C | 10 to 50 |
| Cc1cc2sc(=O)sc2cc1S(=O)(=O)Nc1ccccc1 | < 1 |
| Cc1cc2c(cc1S(=O)(=O)N1CCN(c3ccc(C(F)(F)F)cn3)CC1)oc(=O)n2C | 1 to 10 |
| Cn1c(=O)oc2cc(S(=O)(=O)N3CCN(S(=O)(=O)c4ccc5c(c4)OCCO5)CC3)ccc21 | < 1 |
| CCn1c(=O)oc2cc(Cl)c(S(=O)(=O)Nc3ccc(F)cc3)cc21 | 10 to 50 |
| Cc1cc2sc(=O)sc2cc1S(=O)(=O)Nc1ccc(Cl)cc1 | 1 to 10 |
| CCn1c(=O)oc2cc(S(=O)(=O)Nc3ccccc3Cl)c(C)cc21 | 1 to 10 |
| O=c1[nH]c2cc(NS(=O)(=O)c3cccc(Cl)c3)c(Cl)cc2o1 | 10 to 50 |
| Cn1c(=O)oc2cc(F)c(S(=O)(=O)N3CCN(S(=O)(=O)c4c(F)cccc4F)CC3)cc21 | < 1 |
| COc1ccc(Cl)cc1S(=O)(=O)Nc1ccc2sc(=O)[nH]c2c1 | 1 to 10 |
| O=c1[nH]c2cc(NS(=O)(=O)c3cccs3)ccc2s1 | 10 to 50 |
| Cn1c(=O)sc2cc(S(=O)(=O)N3CCCN(S(=O)(=O)c4c(F)cccc4F)CC3)ccc21 | 1 to 10 |
| Cc1cc2c(cc1S(=O)(=O)N1CCN(S(=O)(=O)c3ccc4c(c3)OCCO4)CC1)oc(=O)n2C | < 1 |
| CCn1c(=O)sc2ccc(NS(=O)(=O)c3cccs3)cc21 | 10 to 50 |
| Cc1cc2sc(=O)sc2cc1S(=O)(=O)Nc1ccc(F)cc1 | 1 to 10 |
| COc1ccc(C)cc1S(=O)(=O)Nc1ccc2oc(=O)[nH]c2c1 | 10 to 50 |
| Cn1c(=O)oc2cc(S(=O)(=O)Nc3cccc4ncccc34)ccc21 | 10 to 50 |

| Compound | AC50 [µM] |
| --- | --- |
| COc1ccc(Cl)cc1S(=O)(=O)N1CCN(S(=O)(=O)c2ccc3c(c2)sc(=O)n3C)CC1 | 1 to 10 |
| Cn1c(=O)sc2ccc(NS(=O)(=O)c3cccs3)cc21 | 10 to 50 |
| CCn1c(=O)oc2cc(Cl)c(S(=O)(=O)Nc3ccccc3Cl)cc21 | > 100 |
| Cc1cc(C)cc(NS(=O)(=O)c2ccc3c(c2)oc(=O)n3CCc2ccccc2)c1 | 1 to 10 |
| COc1ccc(Cl)cc1S(=O)(=O)Nc1cc2[nH]c(=O)oc2cc1C | 1 to 10 |
| Cc1cc2sc(=O)sc2cc1S(=O)(=O)Nc1ncc(C(F)(F)F)cc1Cl | 1 to 10 |
| Cc1cc2oc(=O)n(C)c2cc1S(=O)(=O)N1CCN(c2ccc(C(F)(F)F)cn2)CC1 | 1 to 10 |
| O=c1oc2cc(S(=O)(=O)Nc3ccc(Cl)cc3)ccc2n1Cc1ccccc1 | 1 to 10 |
| Cc1cc(C)cc(NS(=O)(=O)c2ccc3c(c2)sc(=O)n3C)c1 | < 1 |
| Cn1c(=O)sc2cc(S(=O)(=O)Nc3cccc(Cl)c3)ccc21 | < 1 |
| Cn1c(=O)sc2cc(S(=O)(=O)Nc3ccc4ccccc4c3)ccc21 | < 1 |
| COc1ccc(C)cc1S(=O)(=O)Nc1ccc(NS(=O)(=O)c2ccc3c(c2)oc(=O)n3C)cc1 | 1 to 10 |
| Cn1c(=O)sc2cc(S(=O)(=O)N3CCN(S(=O)(=O)c4ccccc4)CC3)ccc21 | 1 to 10 |
| Cc1cc2oc(=O)sc2cc1NS(=O)(=O)c1cccs1 | 10 to 50 |
| O=c1[nH]c2cc(NS(=O)(=O)c3ccccc3)ccc2s1 | 10 to 50 |
| Cc1cc2sc(=O)sc2cc1S(=O)(=O)Nc1ccccc1Cl | 1 to 10 |
| Cn1c(=O)oc2cc(S(=O)(=O)Nc3cccc4ccccc34)ccc21 | 1 to 10 |
| O=c1[nH]c2cc(NS(=O)(=O)c3cccs3)c(Cl)cc2o1 | 1 to 10 |
| Cn1c(=O)oc2cc(S(=O)(=O)NC(C)(C)C)ccc21 | > 100 |
| COc1ccc(C)cc1S(=O)(=O)Nc1cc2[nH]c(=O)oc2cc1C | 10 to 50 |
| CCn1c(=O)oc2ccc(NS(=O)(=O)c3cccs3)cc21 | > 100 |
| O=c1[nH]c2cc(NS(=O)(=O)c3cccs3)ccc2o1 | 10 to 50 |
| O=c1oc2cc(S(=O)(=O)Nc3ccc(F)cc3)ccc2n1CCc1ccccc1 | 1 to 10 |
| Cn1c(=O)oc2cc(S(=O)(=O)Nc3ccccc3Cl)ccc21 | 1 to 10 |

Continued, values first:

| AC50 [µM] | Compound |
| --- | --- |
| > 100 | COc1ccc(Cl)cc1S(=O)(=O)Nc1cc2c(cc1C)oc(=O)n2C [drawing 27] |
| < 1 | Cc1cc(S(=O)(=O)Nc2ccc(F)c(Cl)c2)cc2oc(=O)n(C)c12 |
| > 100 | Cn1c(=O)oc2cc(F)c(NS(=O)(=O)c3cccs3)cc21 |
| < 1 | Cc1cc(C)cc(NS(=O)(=O)c2ccc3c(c2)oc(=O)n3C)c1 |
| < 1 | COCCn1c(=O)oc2cc(S(=O)(=O)Nc3ccc(F)c(C)c3)ccc21 |
| 1 to 10 | Cc1cc2oc(=O)n(C)c2cc1NS(=O)(=O)c1ccccc1C |
| < 1 | COCCn1c(=O)oc2cc(S(=O)(=O)Nc3cccc(Cl)c3)cc(C)c21 |
| < 1 | Cc1cc(C)cc(NS(=O)(=O)c2cc3c(cc2C)oc(=O)n3C)c1 |
| 1 to 10 | COc1ccc(Cl)cc1NS(=O)(=O)c1cc2oc(=O)n(C)c2cc1C |
| < 1 | Cc1cc(NS(=O)(=O)c2cc(C)c3c(c2)oc(=O)n3C)ccc1F |
| 10 to 50 | Cc1cc2oc(=O)n(C)c2cc1NS(=O)(=O)c1cc(Cl)cc(Cl)c1 |
| > 100 | Cc1cc2oc(=O)n(C)c2cc1NS(=O)(=O)c1ccc(F)c(F)c1 |
| > 100 | CC(=O)Nc1ccc(NS(=O)(=O)c2cc3c(cc2C)oc(=O)n3C)cc1 |
| 1 to 10 | COc1ccc(C)cc1S(=O)(=O)Nc1cc2c(cc1Cl)oc(=O)n2C |
| < 1 | Cc1cc2oc(=O)n(C)c2cc1S(=O)(=O)Nc1cccc(Cl)c1 |
| < 1 | Cn1c(=O)oc2cc(S(=O)(=O)Nc3ccc4c(c3)OCO4)ccc21 |
| 1 to 10 | COc1cc(NS(=O)(=O)c2cc3c(cc2C)oc(=O)n3C)cc(OC)c1 |
| < 1 | Cc1cc(C)cc(NS(=O)(=O)c2cc3c(cc2F)oc(=O)n3C)c1 |
| < 1 | COCCn1c(=O)oc2cc(S(=O)(=O)Nc3ccc(F)c(Cl)c3)ccc21 |
| 1 to 10 | Cn1c(=O)oc2cc(S(=O)(=O)Nc3ccc4ncccc4c3)ccc21 |
| 1 to 10 | Cn1c(=O)oc2cc(S(=O)(=O)Nc3ccc(OC(F)(F)F)c(Cl)c3)ccc21 |
| 1 to 10 | Cc1cc(NS(=O)(=O)c2cc(CN3CCCCC3)c3c(c2)oc(=O)n3C)ccc1F |
| < 1 | Cc1cc(C)cc(NS(=O)(=O)c2ccc3oc(=O)n(C)c3c2)c1 |
| < 1 | Cc1ccc(NS(=O)(=O)c2cc3c(cc2C)oc(=O)n3C)cc1F |
| 1 to 10 | Cn1c(=O)oc2cc(Cl)c(S(=O)(=O)Nc3ccc(F)cc3)cc21 |
| 10 to 50 | COc1cccc(S(=O)(=O)Nc2cc3c(cc2C)oc(=O)n3C)c1 |
| 1 to 10 | Cc1cc2oc(=O)n(C)c2cc1S(=O)(=O)N1CCCN(c2ccc(C(F)(F)F)cn2)CC1 |

| AC50 [µM] | Compound |
| --- | --- |
| 1 to 10 | Cc1cc2oc(=O)n(C)c2cc1S(=O)(=O)Nc1ccccc1F |
| 1 to 10 | Cc1cc2oc(=O)n(C)c2cc1S(=O)(=O)Nc1ccc(Cl)c(F)c1 |
| 10 to 50 | COc1ccc(Cl)cc1S(=O)(=O)Nc1cc2c(cc1F)oc(=O)n2C |
| > 100 | Cn1c(=O)oc2cc(F)c(NS(=O)(=O)c3c(F)cccc3F)cc21 |
| 1 to 10 | Cc1cc2oc(=O)n(C)c2cc1S(=O)(=O)Nc1ccc(Cl)c(Cl)c1 |
| < 1 | Cc1cc(C)cc(NS(=O)(=O)c2cc3c(cc2Cl)oc(=O)n3C)c1 |
| < 1 | Cc1cc(NS(=O)(=O)c2ccc3c(c2)oc(=O)n3C)ccc1Cl |
| < 1 | Cc1cc2oc(=O)n(C)c2cc1S(=O)(=O)Nc1ccc2c(c1)OCO2 |
| < 1 | COCCn1c(=O)oc2cc(S(=O)(=O)Nc3ccc(F)c(Cl)c3)cc(C)c21 |
| 1 to 10 | Cn1c(=O)oc2cc(S(=O)(=O)NC3CCCCC3)ccc21 |
| < 1 | Cc1cc(S(=O)(=O)Nc2cccc(Cl)c2)cc2oc(=O)n(C)c12 |
| 10 to 50 | COc1ccc(S(=O)(=O)Nc2cc3c(cc2Cl)oc(=O)n3C)cc1OC |
| < 1 | Cc1cc2oc(=O)n(C)c2cc1S(=O)(=O)Nc1ccc(F)c(Cl)c1 |
| < 1 | Cc1cc(C)cc(NS(=O)(=O)c2cc3oc(=O)n(C)c3cc2F)c1 |
| 10 to 50 | Cn1c(=O)oc2cc(Cl)c(NS(=O)(=O)c3cccc(Cl)c3)cc21 |
| < 1 | COc1ccc(Cl)cc1S(=O)(=O)Nc1cc2c(cc1C)oc(=O)n2C [drawing 47] |
| < 1 | Cc1cc(S(=O)(=O)Nc2ccc(F)c(Cl)c2)cc2oc(=O)n(CCN(C)C)c12 |
| 1 to 10 | Cc1cc2oc(=O)n(C)c2cc1S(=O)(=O)Nc1cc(F)cc(F)c1 |
| 1 to 10 | CCn1c(=O)oc2cc(S(=O)(=O)Nc3cc(Cl)ccc3OC)c(C)cc21 |
| < 1 | COCCn1c(=O)oc2cc(S(=O)(=O)Nc3cccc(Cl)c3)ccc21 |
| 1 to 10 | Cc1cc2oc(=O)n(C)c2cc1S(=O)(=O)Nc1ccccc1Cl |
| < 1 | COc1cc(NS(=O)(=O)c2ccc3c(c2)oc(=O)n3C)cc(OC)c1 |
| 10 to 50 | Cc1cc2oc(=O)n(C)c2cc1NS(=O)(=O)c1ccccc1Cl |
| 10 to 50 | CCn1c(=O)oc2cc(C)c(NS(=O)(=O)c3cc(Cl)ccc3OC)cc21 |
| 1 to 10 | Cc1cc(NS(=O)(=O)c2cc(C)c3c(c2)oc(=O)n3CCN2CCOCC2)ccc1F |
| 1 to 10 | Cc1ccc(NS(=O)(=O)c2ccc3c(c2)oc(=O)n3C)cc1F |
| 1 to 10 | COCCn1c(=O)oc2cc(C)c(S(=O)(=O)Nc3ccc(F)c(C)c3)cc21 |
